Data taken from patent US4119667A, “Haloaniline derivatives as plant growth modifiers” (Rohm and Haas Company, priority 1974, dated 1978).
Where a name gives a salt, the structure may show the parent alone. Read-outs that look alike come from different tables or passages of the source.

Assays:
soybean (Var. Clark) [1] = assay: greenhouse growth regulator test on soybean (Table I); assay type: in vivo; details: two weeks after application; for Injury (0-10): 0-10 scale, 0 = no effect, 10 = complete kill; for pest or weed control / pest or weed control at 2241.7 g/ha: Glycine max, foliar, 336 h, read-out: Height (% inhib.); for pest or weed control / pest or weed control at 2241.7 g/ha / Height (% inhib.): relative to control
From the text: Limited greenhouse experiments shown that there is promotion of lateral bud growth when compounds are applied at higher concentrations and earlier timings and an increase in soybean pod numbers at lower rates applied just prior to or at the flowering stage. […] Three parameters are reported in Table I to indicate the general spectrum of activity for each evaluated compound including the propensity for releasing lateral bud growth in soybeans. These are: (a) plant height measured as percent inhibition relative to the control; (b) the number of lateral buds per plant; and (c) phytotoxic injury on a scale of 0 to 10 (10 being maximum injury). Sampling compounds were evaluated in the greenhouse in a special growth regulator test. Four to five soybean seeds (Var. Clark) were planted in 4-inch pots with a humus-soil mixture. Two weeks after planting, two uniform plants were selected from each pot for treatment. The candidate compounds were dissolved in acetone-water (1:1), and applied as a foliar spray in a carrier volume of 50 gallons per acre, using a moving belt sprayer at a rate of 1/4, 1/2 and 2 lbs/acre. Six plants were used for each treatment. Two weeks after application, the number of laterals per plant, plant injury (0-10 scale; 0 = no effect, 10 = complete kill,) and the height of each plant were recorded. Untreated plants were used as controls.

soybean (Var. Clark) [2] = assay: effect of haloaniline derivatives on soybean yields at different rates and stages of growth (Table VIII); assay type: in vivo
Procedure: a further experiment was conducted to determine the effect of selected haloaniline derivatives on soybean yields at different rates of application, and at differing stages of growth.
Soybeans (Var. Clark) were planted at the rate of 4 seeds per 6 inch pot in a medium of 1 part humus and 2 parts soil. Two weeks after planting two uniform plants were selected from each pot for treatment. The soybeans were treated weekly with a high analysis liquid fertilizer. The candidate compounds were dissolved in acetone-water (1:1) and applied at three timings as a foliar spray in a carrier volume of 50 gallons per acre using a moving belt sprayer at rates ranging from 0.1 to two lbs. per acre. Six plants were used for each treatment. The beans were harvested eight weeks after the third treatment and the seeds and pods per plant were counted.

Row | SMILES | No. Laterals per plant (soybean (Var. Clark) [1]; 1/2 lbs/acre foliar spray) | Injury (0-10) (soybean (Var. Clark) [1]; 1/2 lbs/acre) | No. Laterals per plant (soybean (Var. Clark) [1]; 1/4 lbs/acre foliar spray) | Injury (0-10) (soybean (Var. Clark) [1]; 1/4 lbs/acre) | No. Laterals per plant (soybean (Var. Clark) [1]; 2 lbs/acre foliar spray) | Injury (0-10) (soybean (Var. Clark) [1]; 2 lbs/acre) | pest or weed control (soybean (Var. Clark) [1]; 1/2 lbs/acre foliar spray) | pest or weed control (soybean (Var. Clark) [1]; 1/4 lbs/acre foliar spray) | pest or weed control at 2241.7 g/ha (soybean (Var. Clark) [1]; 2 lbs/acre foliar spray) | Pods per Plant (soybean (Var. Clark) [2]; 2nd treatment, 0.10 lbs./A) | Seeds per Plant (soybean (Var. Clark) [2]; 2nd treatment, 0.10 lbs./A) | Seeds per Pod (soybean (Var. Clark) [2]; 2nd treatment, 0.10 lbs./A) | Pods per Plant (soybean (Var. Clark) [2]; 2nd treatment, 0.30 lbs./A) | Seeds per Plant (soybean (Var. Clark) [2]; 2nd treatment, 0.30 lbs./A) | Seeds per Pod (soybean (Var. Clark) [2]; 2nd treatment, 0.30 lbs./A) | Pods per Plant (soybean (Var. Clark) [2]; 2nd treatment, 0.90 lbs./A) | Seeds per Plant (soybean (Var. Clark) [2]; 2nd treatment, 0.90 lbs./A) | Seeds per Pod (soybean (Var. Clark) [2]; 2nd treatment, 0.90 lbs./A) | Pods per Plant (soybean (Var. Clark) [2]; 3rd treatment, 0.10 lbs./A) | Seeds per Plant (soybean (Var. Clark) [2]; 3rd treatment, 0.10 lbs./A) | further results
1 | Clc1cc(Cl)cc(N=Cc2ccccc2)c1 [IV, 3,5-dichloro-N-benzylideneaniline] | 2 | 0 | 3 | 0 | 5 | 1 | 5% | 7% | 17% | 8.3 | 8.3 | 1.0 | 0.7 | 1.0 | 1.5 | 2.7 | 3.2 | 1.2 | 16.5 | 37.0 | Seeds per Pod (soybean (Var. Clark) [2]; 3rd treatment, 0.10 lbs./A): 2.2; Pods per Plant (soybean (Var. Clark) [2]; 3rd treatment, 0.30 lbs./A): 13.2; Seeds per Plant (soybean (Var. Clark) [2]; 3rd treatment, 0.30 lbs./A): 23.3; Seeds per Pod (soybean (Var. Clark) [2]; 3rd treatment, 0.30 lbs./A): 1.7; Pods per Plant (soybean (Var. Clark) [2]; 3rd treatment, 0.90 lbs./A): 19.3; Seeds per Plant (soybean (Var. Clark) [2]; 3rd treatment, 0.90 lbs./A): 37.7; Seeds per Pod (soybean (Var. Clark) [2]; 3rd treatment, 0.90 lbs./A): 1.9
2 | O=CNc1cc(Cl)cc(Cl)c1 [XVIII, 3',5'-dichloroformanilide] | 5 | 1 | 4 | 0 | 5 | 1 | 11% | 3% | 15% | 16.2 | 17.5 | 1.1 | 9.2 | 6.3 | 0.7 | 0.5 | 0.5 | 1.0 | 9.3 | 15.2 | Pods per Plant (soybean (Var. Clark) [2]; 1st treatment, 0.25 lbs./A): 1.4; Seeds per Plant (soybean (Var. Clark) [2]; 1st treatment, 0.25 lbs./A): 0.0; Seeds per Pod (soybean (Var. Clark) [2]; 1st treatment, 0.25 lbs./A): 0.0; Pods per Plant (soybean (Var. Clark) [2]; 1st treatment, 0.50 lbs./A): 0.8; Seeds per Plant (soybean (Var. Clark) [2]; 1st treatment, 0.50 lbs./A): 1.0; Seeds per Pod (soybean (Var. Clark) [2]; 1st treatment, 0.50 lbs./A): 1.3; Pods per Plant (soybean (Var. Clark) [2]; 1st treatment, 1.00 lbs./A): 0.0; Seeds per Plant (soybean (Var. Clark) [2]; 1st treatment, 1.00 lbs./A): 0.0; Seeds per Pod (soybean (Var. Clark) [2]; 1st treatment, 1.00 lbs./A): 0.0; Pods per Plant (soybean (Var. Clark) [2]; 1st treatment, 2.00 lbs./A): 0.0; Seeds per Plant (soybean (Var. Clark) [2]; 1st treatment, 2.00 lbs./A): 0.0; Seeds per Pod (soybean (Var. Clark) [2]; 1st treatment, 2.00 lbs./A): 0.0; Seeds per Pod (soybean (Var. Clark) [2]; 3rd treatment, 0.10 lbs./A): 1.6; Pods per Plant (soybean (Var. Clark) [2]; 3rd treatment, 0.30 lbs./A): 5.2; Seeds per Plant (soybean (Var. Clark) [2]; 3rd treatment, 0.30 lbs./A): 10.5; Seeds per Pod (soybean (Var. Clark) [2]; 3rd treatment, 0.30 lbs./A): 2.0; Pods per Plant (soybean (Var. Clark) [2]; 3rd treatment, 0.90 lbs./A): 5.2; Seeds per Plant (soybean (Var. Clark) [2]; 3rd treatment, 0.90 lbs./A): 9.5; Seeds per Pod (soybean (Var. Clark) [2]; 3rd treatment, 0.90 lbs./A): 1.8
3 | CCOC(CC)=Nc1cc(Cl)cc(Cl)c1 [XXII, Ethyl N-(3,5-dichlorophenyl)propionimidate] | 3 | 1 | 1 | 2 | 3 | 1 |  |  |  |  |  |  |  |  |  |  |  |  |  |  | 
4 | Clc1ccc(N=Cc2ccccc2)cc1Cl [XIII, 3,4-Dichloro-N-benzylideneaniline] | 4 | 0 | 2 | 1 | 3 | 4 | 9% | 17% | 19% | 13.7 | 20.5 | 1.5 | 12.0 | 17.7 | 1.5 | 5.2 | 6.7 | 1.3 | 5.5 | 7.8 | Seeds per Pod (soybean (Var. Clark) [2]; 3rd treatment, 0.10 lbs./A): 1.4; Pods per Plant (soybean (Var. Clark) [2]; 3rd treatment, 0.30 lbs./A): 11.0; Seeds per Plant (soybean (Var. Clark) [2]; 3rd treatment, 0.30 lbs./A): 17.2; Seeds per Pod (soybean (Var. Clark) [2]; 3rd treatment, 0.30 lbs./A): 1.6; Pods per Plant (soybean (Var. Clark) [2]; 3rd treatment, 0.90 lbs./A): 9.3; Seeds per Plant (soybean (Var. Clark) [2]; 3rd treatment, 0.90 lbs./A): 16.7; Seeds per Pod (soybean (Var. Clark) [2]; 3rd treatment, 0.90 lbs./A): 1.8
5 | Clc1cc(Cl)cc(N=CNc2cc(Cl)cc(Cl)c2)c1 [XIV, N,N'-Bis[3,5-dichlorophenyl]formamidine] | 3 | 3 | 1 | 2 | 4 | 0 | 11% | 13% |  |  |  |  |  |  |  |  |  |  |  |  | Height (% inhib.) (soybean (Var. Clark) [1]; 2 lbs/acre foliar spray): 4 % inhib.
6 | Clc1ccc(N=CNc2ccc(Cl)c(Cl)c2)cc1Cl [XXI, n,n'-bis[3,4-dichlorophenyl]formamidine HCl] |  |  |  |  |  |  |  |  |  |  |  |  |  |  |  |  |  |  |  |  | Height (% inhib.) (soybean (Var. Clark) [1]; 1/2 lbs/acre foliar spray, HCl): 4 % inhib.; No. Laterals per plant (soybean (Var. Clark) [1]; 1/2 lbs/acre foliar spray, HCl): 4; Injury (0-10) (soybean (Var. Clark) [1]; 1/2 lbs/acre, HCl): 1; Height (% inhib.) (soybean (Var. Clark) [1]; 1/4 lbs/acre foliar spray, HCl): 0 % inhib.; No. Laterals per plant (soybean (Var. Clark) [1]; 1/4 lbs/acre foliar spray, HCl): 1; Injury (0-10) (soybean (Var. Clark) [1]; 1/4 lbs/acre, HCl): 0; Height (% inhib.) (soybean (Var. Clark) [1]; 2 lbs/acre foliar spray, HCl): 20 % inhib.; No. Laterals per plant (soybean (Var. Clark) [1]; 2 lbs/acre foliar spray, HCl): 5
7 | Clc1ccc(C=Nc2ccc(Cl)c(Cl)c2)cc1 [XI, 3,4-dichloro-N-(4-chlorobenzylidene)aniline] | 5 | 1 | 1 | 0 | 4 | 3 | 25% | 4% | 14% |  |  |  |  |  |  |  |  |  |  |  | 
